This test concerns PC-3-KQ cells. As to the kind of experiment: 3D spheroid invasion assay and screening of FDA-approved drugs. The test is classed as cell-based, human. Particulars: for activity at 0.01 µM / activity at 0.1 µM / activity at 1 µM / activity at 10 µM: 72 h, read-out: Invasion rates (%) of each drug’s multiple concentrations; for activity at 0.01 µM / activity at 0.1 µM / activity at 1 µM / activity at 10 µM / Invasion rates (%) of each drug’s multiple concentrations (μM): compared to vehicle control. In short, it runs like this: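 Cells were clustered into spheroids by centrifugation and grown 3 days, then embedded in matrigel-medium containing drug on day 4 and cultured another 3 days. Drugs were screened at 10 μM first, then at 0–10 μM, in duplicate wells. Invasion area is total area minus core sphere area from phase-contrast images.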

Where [1] appears, read: Homo sapiens, 0.01 μM (first column so headed), secondary screening of 87 hit compounds (Table S1).
Where [2] appears, read: Homo sapiens, 0.01 μM (first column so headed), third screening of 25 hit compounds (Table S2).
The mark [3] stands for this setting: Homo sapiens, 0.01 μM (second column so headed), secondary screening of 87 hit compounds (Table S1).
[4] abbreviates: Homo sapiens, 0.01 μM (second column so headed), third screening of 25 hit compounds (Table S2).
Setting [5] is: Homo sapiens, 0.1 μM, secondary screening of 87 hit compounds (Table S1).
Where [6] appears, read: Homo sapiens, 0.1 μM, third screening of 25 hit compounds (Table S2).
The mark [7] stands for this setting: Homo sapiens, 1 μM, secondary screening of 87 hit compounds (Table S1).
[8] abbreviates: Homo sapiens, 1 μM, third screening of 25 hit compounds (Table S2).
Where [9] appears, read: Homo sapiens, 10 μM, secondary screening of 87 hit compounds (Table S1).
Where [10] appears, read: Homo sapiens, 10 μM, third screening of 25 hit compounds (Table S2).
Where [11] appears, read: 0.01 μM (first column so headed), secondary screening of 87 hit compounds (Table S1).
Setting [12] is: 0.01 μM (second column so headed), secondary screening of 87 hit compounds (Table S1).
Where [13] appears, read: 0.1 μM, secondary screening of 87 hit compounds (Table S1).
[14] abbreviates: 1 μM, secondary screening of 87 hit compounds (Table S1).
[15] abbreviates: 10 μM, secondary screening of 87 hit compounds (Table S1).

Structures can show the parent of a compound that is named as a salt. Where two headings read alike, the source gives them in different places.

Take `CC(C)C[C@H](NC(=O)CNC(=O)c1cc(Cl)ccc1Cl)B1OC(=O)C(CC(=O)O)(CC(=O)O)O1` [Ixazomib citrate]: the activity at 0.01 µM runs as follows: under setting [1], 69.8%; under setting [2], 100%; under setting [3], 81.3%; under setting [4], 96.7%. The activity at 0.1 µM reads like this: under setting [5], 26.9%; under setting [6], 91.4%. The activity at 1 µM was determined as 1.95% under setting [7] and 54.2% under setting [8]. The activity at 10 µM under setting [9] was 1.55% and the activity at 10 µM under setting [10] was found to be 0.4%.
With `CC(C)C[C@H](NC(=O)CNC(=O)c1cc(Cl)ccc1Cl)B(O)O` [Ixazomib], the activity at 0.01 µM reads like this: under setting [1], 35.2%; under setting [2], 83.1%; under setting [3], 76.3%; under setting [4], 95.7%. Also, the activity at 0.1 µM amounted to 22.3% under setting [5] and 76.1% under setting [6]. Also, the activity at 1 µM is, setting by setting: under setting [7], 3.86%; under setting [8], 0.53%. Further, the activity at 10 µM is 1.01% under setting [9] and 0.3% under setting [10].
As for `CO[C@@H]1[C@@H](O[C@@H]2O[C@H](C)[C@@H](O[C@H]3C[C@@](C)(O)[C@@H](OC(=O)CC(C)C)[C@H](C)O3)[C@H](N(C)C)[C@H]2O)[C@@H](CC=O)C[C@@H](C)[C@@H](O)/C=C/C=C/C[C@@H](C)OC(=O)C[C@H]1OC(C)=O` [Josamycin], the activity at 0.01 µM reads like this: under setting [1], 88.6%; under setting [3], 86.9%. The activity at 0.1 µM under setting [5] amounted to 86.7%. Further, the activity at 1 µM under setting [7] amounted to 78%. Besides, the activity at 10 µM under setting [9] amounted to 15.5%.
Take `CC(=O)NC[C@H]1CN(c2ccc(N3CCOCC3)c(F)c2)C(=O)O1` [Linezolid]: the activity at 0.01 µM was 94.4% under setting [1] and 96.6% under setting [3]. Further, the activity at 0.1 µM under setting [5] worked out at 80%. Moreover, the activity at 1 µM under setting [7] stood at 64.5%. Besides, under setting [9], the activity at 10 µM came to 3.51%.
For the compound `N[C@@H](Cc1cc(I)c(Oc2ccc(O)c(I)c2)c(I)c1)C(=O)O` [Liothyronine], the activity at 0.01 µM under setting [1] is 93.5% and the activity at 0.01 µM under setting [3] was 97.4%. For the same compound, the activity at 0.1 µM under setting [5] is 93.3%. The activity at 1 µM under setting [7] came out at 92.5%. Further, the activity at 10 µM under setting [9] is 50.6%.
In the case of `COc1ccc(CN(CCN(C)C)c2ccccn2)cc1` [Mepyramine maleate], the activity at 0.01 µM was found to be 101% under setting [1] and 98.3% under setting [3]. Besides, under setting [5], the activity at 0.1 µM turned out to be 99.1%. Also, the activity at 1 µM under setting [7] is 97.9%. Under setting [9], the activity at 10 µM came to 48.9%.
`C=C1c2cccc(O)c2C(O)=C2C(=O)[C@]3(O)C(O)=C(C(N)=O)C(=O)[C@@H](N(C)C)[C@@H]3[C@@H](O)[C@H]12.Cl` [Methacycline (hydrochloride)]: the “Invasion rates (%) of each drug’s multiple concentrations (μM)” value (shortened to “Invasion rates (%)”) was found to be 68.21% under setting [11]; 93.06% (0.01 μM (first column so headed), third screening of 25 hit compounds (Table S2)); 75.44% under setting [12]; 92.10% (0.01 μM (second column so headed), third screening of 25 hit compounds (Table S2)); 57.31% under setting [13]; 89.39% (0.1 μM, third screening of 25 hit compounds (Table S2)). In addition, the “Invasion rates (%)” value runs as follows: under setting [14], 4.98%; (1 μM, third screening of 25 hit compounds (Table S2)) 5.12%; under setting [15], 3.07%; (10 μM, third screening of 25 hit compounds (Table S2)) 2.20%.
On to `Cc1ncc([N+](=O)[O-])n1CCO` [Metronidazole], for which the activity at 0.01 µM was 93.6% under setting [1] and 93.9% under setting [3]. In addition, the activity at 0.1 µM under setting [5] is 94.1%. Moreover, under setting [7], the activity at 1 µM was found to be 85.7%. Further, under setting [9], the activity at 10 µM amounted to 10.1%.
In the case of `CO[C@@H]1[C@H](N(C)C(=O)c2ccccc2)C[C@H]2O[C@]1(C)n1c3ccccc3c3c4c(c5c6ccccc6n2c5c31)C(=O)NC4` [Midostaurin], the activity at 0.01 µM reads like this: under setting [1], 97.5%; under setting [3], 98.7%. Besides, the activity at 0.1 µM under setting [5] came to 96%. Under setting [7], the activity at 1 µM came to 95.8%. For the same compound, the activity at 10 µM under setting [9] stood at 34.3%.
As for `CN(C)c1ccc(O)c2c1C[C@H]1C[C@H]3[C@H](N(C)C)C(=O)C(C(N)=O)=C(O)[C@@]3(O)C(=O)C1=C2O.Cl` [Minocycline (hydrochloride)], the “Invasion rates (%)” value is, setting by setting: under setting [11], 87.07%; under setting [12], 98.27%; under setting [13], 80.93%; under setting [14], 62.17%; under setting [15], 5.40%.
As for `CO[C@@]12[C@H](COC(N)=O)C3=C(C(=O)C(C)=C(N)C3=O)N1C[C@@H]1N[C@@H]12` [Mitomycin C], the activity at 0.01 µM runs as follows: under setting [1], 4.12%; under setting [2], 41.6%; under setting [3], 39.7%; under setting [4], 93.2%. The activity at 0.1 µM under setting [5] stood at 4.9% and the activity at 0.1 µM under setting [6] was 2.22%. For the same compound, the activity at 1 µM stood at 3.56% under setting [7] and 1.49% under setting [8]. For the same compound, the activity at 10 µM is, setting by setting: under setting [9], 2.5%; under setting [10], 0.24%. Moreover, the inhibition (usually how much of the control response was suppressed) at 0.1 µM (Homo sapiens, at 0.1 μM, read-out: inhibition of cell invasion) was above 50%.
Take `Cl.Cl.O=C1c2c(O)ccc(O)c2C(=O)c2c(NCCNCCO)ccc(NCCNCCO)c21` [Mitoxantrone (dihydrochloride)]: the “Invasion rates (%)” value came to 88.48% under setting [11]; 95.77% under setting [12]; 89.03% under setting [13]; 87.29% under setting [14]; 31.96% under setting [15].
`Cc1ncc([N+](=O)[O-])n1CC(O)CN1CCOCC1` (stereo not shown) [Morinidazole]: the activity at 0.01 µM runs as follows: under setting [1], 83.3%; under setting [3], 89.7%. In addition, the activity at 0.1 µM under setting [5] worked out at 75.5%. Also, the activity at 1 µM under setting [7] is 60%. For the same compound, the activity at 10 µM under setting [9] was found to be 4%.
The corresponding values for `C/C(=C\C(=O)OCCCCCCCCC(=O)O)C[C@@H]1OC[C@H](C[C@@H]2O[C@H]2[C@@H](C)[C@H](C)O)[C@@H](O)[C@H]1O` [Mupirocin] are 95.2%, 98%, 95.3%, 80% and 5.95%.
As to `CC1CCc2c(N3CCC(O)CC3)c(F)cc3c(=O)c(C(=O)O)cn1c23` (stereo not shown) [Nadifloxacin], the activity at 0.01 µM reads like this: under setting [1], 102%; under setting [3], 104%. Further, under setting [5], the activity at 0.1 µM came out at 101%. For the same compound, the activity at 1 µM under setting [7] came out at 100%. In addition, under setting [9], the activity at 10 µM stood at 1.03%.
For `O=C(N/N=C/c1ccc([N+](=O)[O-])o1)c1ccc(O)cc1` [Nifuroxazide], the activity at 0.01 µM under setting [1] came to 68.1%, the activity at 0.01 µM under setting [2] turned out to be 97.2%, the activity at 0.01 µM under setting [3] was 86.4% and the activity at 0.01 µM under setting [4] turned out to be 94.3%. Further, the activity at 0.1 µM turned out to be 50.2% under setting [5] and 86.5% under setting [6]. The activity at 1 µM under setting [7] worked out at 9.13% and the activity at 1 µM under setting [8] was determined as 7.31%. Moreover, the activity at 10 µM reads like this: under setting [9], 2.06%; under setting [10], 1.51%.
On to `CC1CS(=O)(=O)CCN1/N=C/c1ccc([N+](=O)[O-])o1` (stereo not shown) [Nifurtimox], for which the activity at 0.01 µM was 96.2% under setting [1], 97% under setting [2], 96.2% under setting [3] and 97.5% under setting [4]. For the same compound, the activity at 0.1 µM turned out to be 78.6% under setting [5] and 93.5% under setting [6]. The activity at 1 µM came to 32.4% under setting [7] and 5.05% under setting [8]. Moreover, the activity at 10 µM by setting is: under setting [9], 1.95%; under setting [10], 0.53%.
Take `COC(=O)c1ccc2c(c1)NC(=O)/C2=C(\Nc1ccc(N(C)C(=O)CN2CCN(C)CC2)cc1)c1ccccc1` [Nintedanib]: the activity at 0.01 µM runs as follows: under setting [1], 98.1%; under setting [3], 98.3%. In addition, the activity at 0.1 µM under setting [5] was 97.5%. Moreover, under setting [7], the activity at 1 µM came out at 95.2%. Under setting [9], the activity at 10 µM came out at 36.2%.
